According to publication PMC11076555, “Dishevelled2 activates WGEF via its interaction with a unique internal peptide motif of the GEF” (Communications Biology, 2024):

Legend:
[1] = target: T1, Dvl2^PDZ (PDZ domain of human Dishevelled2) (Homo sapiens, UniProt O14641); test: Microscale thermophoresis (MST) binding to Dvl2^PDZ; conditions: compared with wild-type WGEF^pep, triplicates
T1 construct: introducing a stop codon after C354 residue of Dvl2^PDZ to eliminate the fused peptide, cloned at the C-termini of PDZ; 6xHis (N, cleaved yes); host or cells: E. coli Rosetta (DE3)
T1 sequence (O14641 267-339 limits assumed): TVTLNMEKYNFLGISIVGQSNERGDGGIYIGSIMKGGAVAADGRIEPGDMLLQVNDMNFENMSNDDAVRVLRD
Protocol: MST experiments were performed using Monolith NT.115 instrument from Nanotemper technologies. Dvl2^PDZ domain was fluorescently labelled as per the instructions, using Monolith Redmaleimide 2nd generation-cysteine reactive label. The experimental condition consists of 10 mM Tris–HCl pH8, 150 mM NaCl, 2 mM DTT, 5% Glycerol and 0.05% Tween20. For Dvl2^PDZ-peptide affinity determination, synthetic WGEF peptides were serially diluted (1:2) 16 times, starting from an approximate concentration of 3.4 mM. 50 nM of fluorescently labelled Dvl2^PDZ domain was added to the serially diluted peptides, followed by incubation at 25 °C for 30 minutes. Thermophoresis signals were recorded at 20% of excitation power and 40% MST at 25 °C. Data was fitted using the Kd fit model in the MO. Affinity Analysis v2.3 software. Like peptides, hWGEF (330–581) protein was serially diluted to obtain a protein concentration range of 138–0.0042 µM. Experimental conditions were the same as mentioned above for peptides. All MST experiments were done in triplicates.
Guanine nucleotide exchange assays were performed in triplicates. Fluorescence decrease was fitted using a single exponential decay mode in GraphPad Prism. All results are reported with standard deviation (±SD). Statistical significance was calculated using ordinary One-way ANOVA with multiple comparisons. * Represents adjust P value with statistical significance of ****P < 0.0001, ***P < 0.001, **P < 0.01 and […]. MST assays were performed in triplicates. Data was fitted using the Kd fit model in the MO. Affinity Analysis v2.3 software. All results are reported with standard deviation (±SD). MD simulation runs for apo and peptide docked Dvl2^PDZ were performed in triplicates. Plots reported from MD simulation studies are represented with standard deviation (±SD).

[2] = system: Dvl2^PDZ–WGEF interaction; test: In vitro guanine nucleotide exchange (GEF) assay, peptide competition with Dvl2^PDZ-activated xWGEF330; format: biochemical, Xenopus laevis (xWGEF), human (hDvl2^PDZ; conditions: 200 µM peptide, 50 µM Dvl2^PDZ, 5 µM xWGEF330, 2 µM Mant-GDP loaded RhoA, 30 min at 25 °C, fluorescence 360/440 nm, triplicates
Protocol: Guanine nucleotide exchange assays were carried out using RhoA loaded with fluorescently labelled Mant-GDP[63],[64]. Briefly, 150 μM of RhoA was incubated with 5 Molar excess of fluorescent label, i.e., Mant-GDP in a buffer containing 10 mM Tris pH 8, 150 mM NaCl, 2 mM DTT, 5 mM EDTA, 0.5 mM MgCl2 and 5% Glycerol. The reaction was incubated on ice for 30 min, followed by the addition of 10 mM MgCl2 to stop the reaction. Excess Mant-GDP was removed through buffer exchange and Mant-GDP loaded RhoA was concentrated and stored at −80 °C. For assays, 2 μM of Mant-GDP loaded RhoA was incubated with 5 μM of xWGEF in the presence or absence of hDvl2^PDZ (0 μM, 25 μM and 50 μM) for 30 min at 25 °C. […] Once the fluorescence was stable, excess GTP (10x of labelled GTPase) was added to start the exchange reaction. […] A decrease in fluorescence was recorded using a BioTek Cytation5 plate reader with excitation and emission of 360 and 440 nm, respectively. Fluorescence was normalized and decrease was fitted using a single exponential decay mode in GraphPad Prism. […]
Guanine nucleotide exchange assays were performed in triplicates. Fluorescence decrease was fitted using a single exponential decay mode in GraphPad Prism. […]

| Effect of alanine substitution on WGEF^pep–Dvl2^PDZ interaction (in words) [1] | Sequence | Effect of peptide on GEF (nucleotide exchange) activity of Dvl2^PDZ-activated xWGEF330 [2] |
| --- | --- | --- |
| completely abolishes | GSTFSLAQDIP [WGEF^pepW7A, alanine variant of WGEF^pep, …] |  |
| completely abolishes | GSTFSLWQAIP [WGEF^pepD9A, alanine variant of WGEF^pep, …] | decrease in the exchange activity of WGEF, but not to an extent brought out by the wild-type WGEF^pep |
| completely abolishes | GSTFSLWQDIA [WGEF^pepP11A, alanine variant of WGEF^pep, …] |  |
